Laboratory results published in the supplement of paper PMC10307832.

Assays:
Assay in all cases: relative viability (nuclei count vs DMSO), 5 days (fraction); higher = more cells survive
[1] = compound: CC1=C(C(=NN1)C)CC2=C(C3=C(S2)N(C(=O)N(C3=O)C)CC(C)C)C(=O)N4C[C@@H](CO4)O + Nc1ncn([C@H]2C[C@H](O)[C@@H](CO)O2)c(=O)n1 [Decitabine] (partner 2 µM)
Procedure, shortened: (§1)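 Cells from lung cancer lines were seeded into 1536-well plates and, one day later, dosed by pin tool. Treatments were either a single drug or a fixed dose of an anchor drug with five library-drug doses (not always all listed) in √10 steps. After 5 days, nuclei were stained in a one-step fixation (final 0.05% Triton X-100, 1% formaldehyde, 1 ug/ml Hoechst) and counted on 4× images, and relative viability is the treated-to-vehicle nuclei ratio, as the median of duplicate plates.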

[2] = compound: CC1=C(C(=NN1)C)CC2=C(C3=C(S2)N(C(=O)N(C3=O)C)CC(C)C)C(=O)N4C[C@@H](CO4)O + CS(=O)(=O)N1CCN(Cc2cc3nc(-c4cccc5[nH]ncc45)nc(N4CCOCC4)c3s2)CC1 [Pictilisib] (partner 1 µM)
Procedure, shortened: as §1

IDH-C35 + AZD7762 = compound: Cc1ccccc1C(C(=O)NC1CCCCC1)N(C(=O)Cn1ccnc1C)c1cccc(F)c1 [IDH-C35] + NC(=O)Nc1cc(-c2cccc(F)c2)sc1C(=O)N[C@H]1CCCNC1 [AZD7762] (partner 0.2 µM)
Procedure, shortened: as §1

IDH-C35 + Trametinib = compound: Cc1ccccc1C(C(=O)NC1CCCCC1)N(C(=O)Cn1ccnc1C)c1cccc(F)c1 [IDH-C35] + CC(=O)Nc1cccc(-n2c(=O)n(C3CC3)c(=O)c3c(Nc4ccc(I)cc4F)n(C)c(=O)c(C)c32)c1 [Trametinib] (partner 0.02 µM)
Procedure, shortened: as §1

Cell Line | relative viability ([1]; first compound 0.0025 µM) | relative viability ([1]; first compound 0.007906 µM) | relative viability ([1]; first compound 0.025 µM) | relative viability ([1]; first compound 0.07906 µM) | relative viability ([1]; first compound 0.25 µM) | relative viability ([2]; first compound 0.0025 µM) | relative viability ([2]; first compound 0.007906 µM) | relative viability ([2]; first compound 0.025 µM) | relative viability ([2]; first compound 0.07906 µM) | relative viability ([2]; first compound 0.25 µM) | relative viability (IDH-C35 + AZD7762; first compound 0.08 µM) | relative viability (IDH-C35 + AZD7762; first compound 0.253 µM) | relative viability (IDH-C35 + AZD7762; first compound 0.8 µM) | relative viability (IDH-C35 + AZD7762; first compound 2.53 µM) | relative viability (IDH-C35 + AZD7762; first compound 8 µM) | relative viability (IDH-C35 + Trametinib; first compound 0.08 µM) | relative viability (IDH-C35 + Trametinib; first compound 0.253 µM) | relative viability (IDH-C35 + Trametinib; first compound 0.8 µM) | relative viability (IDH-C35 + Trametinib; first compound 2.53 µM) | relative viability (IDH-C35 + Trametinib; first compound 8 µM)
NCI-H2347 | 0.638 | 0.649 | 0.608 | 0.56 | 0.662 | 0.905 | 0.909 | 0.507 | 0.836 | 0.547 | 0.781 | 0.799 | 0.884 | 0.718 | 0.658 | 0.342 | 0.281 | 0.323 | 0.28 | 0.283
NCI-H2405 | 0.686 | 0.746 | 0.752 | 0.738 | 0.739 | 0.459 | 0.422 |  | 0.432 | 0.476 | 0.857 | 0.771 | 0.815 | 0.913 | 0.768 | 0.66 | 0.679 | 0.59 | 0.58 | 0.589
NCI-H3122 | 0.393 | 0.454 | 0.47 | 0.448 | 0.389 | 0.644 | 0.618 | 0.642 | 0.606 | 0.587 | 1.02 | 0.996 | 1.02 | 0.987 | 1.03 | 0.22 | 0.249 | 0.21 | 0.236 | 0.212
PC-3 [JPC-3] | 0.843 | 0.787 | 0.9 | 0.843 | 0.996 | 0.896 | 0.866 | 0.732 | 0.797 | 0.763 | 0.75 | 0.867 | 0.86 | 0.844 | 0.78 | 0.65 | 0.745 | 0.725 | 0.758 | 0.67
PC-14 | 0.223 | 0.27 | 0.215 | 0.199 | 0.275 | 0.737 | 1.01 | 0.805 | 0.767 | 0.842 | 0.339 | 0.427 | 0.32 | 0.302 | 0.387 | 0.645 | 0.695 | 0.735 | 0.768 | 0.705
RERF-LC-KJ | 0.852 | 0.739 | 0.766 | 0.656 | 0.678 | 0.623 | 0.527 | 0.557 | 0.518 | 0.587 | 1.03 | 1.03 | 0.982 | 0.794 | 1.01 | 0.846 | 0.831 | 0.868 | 0.904 | 0.779
